In patent US20090068290A1, “BIFEPRUNOX DOSES FOR TREATING SCHIZOPHRENIA” (priority 2006, published 2009):

Columns and labels:
Type in all cases: in vivo, human
[1] = tested on: adult subjects with schizophrenia; assay: CGI responder rate, Clinical Study Three; conditions: LOCF
Excerpt: CLINICAL STUDY THREE: A CGI responder is defined as a subject who is categorized as “very much improved” or “much improved” on the CGI Improvement scale. […] No notable differences were observed between the placebo group and either of the two bifeprunox dose groups.

[2] = tested on: adult subjects with schizophrenia; assay: CGI Severity of Illness score, Clinical Study Two; conditions: LOCF; for Change from Baseline in CGI Severity of Illness Score, Mean (SD) / Change from Baseline in CGI Severity of Illness Score, Median: Risperidone 6 mg, ITT population
Procedure: (§1) Rating scale assessments were performed weekly, except for week 5, to measure the change from baseline to endpoint of the PANSS total score. Other assessments included: PANSS positive symptom subscale score, PANSS negative symptom subscale score, PANSS general pschopathology subscale score, BPRS total score, BPRS psychosis score, the CGI-S score, the CGI-I score, responder rates based on the PANSS total score, and the Calgary Depression Scale for Schizophrenia (CDSS). […]
(§2) Subjects who completed this study had the option to continue in the long-term. […] Risperidone-treated subjects were titrated from 2 mg to 6 mg daily over a three-day period and were subsequently maintained at 6 mg/day for the remainder of the treatment period. […] Blood samples were also obtained at Screening/Baseline, Week 3, and Week 6 for clinical laboratory assessments.

[3] = tested on: adult subjects with schizophrenia; assay: PANSS general psychopathology subscale score, Clinical Study Two; conditions: LOCF; for Change from Baseline in General Psychopathology Subscale Score, Mean (SD) / Change from Baseline in General Psychopathology Subscale Score, Median: Risperidone 6 mg, ITT population
Procedure: as §1, §2

[4] = tested on: adult subjects with schizophrenia; assay: PANSS responder rates, Clinical Study One; conditions: Risperidone 6 mg; ITT
Procedure: There were five treatment groups in this study. […] Study medication was administered once daily. After Baseline measurements were performed, the titration phase was begun. Bifeprunox treated subjects were titrated up to 5 mg, 10 mg or 20 mg according to a standardized titration schedule (Day 1: 0.125 mg, Day 2: 0.25 mg, Day 3: 0.5 mg, Day 4: 1.0 mg, Day 5: 2.0 mg, Day 6: 5.0 mg, Day 7: 10.0 mg, Day 8: 20 mg). When the assigned dose was reached, subjects were maintained at that dose for the remainder of the six-week treatment period.

[5] = tested on: adult subjects with schizophrenia; assay: PANSS total score, Clinical Study Two (6-week, risperidone-referenced); conditions: Risperidone 6 mg, LOCF, ITT
Procedure: Treatment started with a single-blind placebo lead-in period of at least three days, followed by titration from 0.25 mg up to 30 mg/day or 40 mg/day of bifeprunox for bifeprunox-treated subjects.
Rating scale assessments were performed weekly, except for week 5, to measure the change from baseline to endpoint of the PANSS total score. Other assessments included: PANSS positive symptom subscale score, PANSS negative symptom subscale score, PANSS general pschopathology subscale score, BPRS total score, BPRS psychosis score, the CGI-S score, the CGI-I score, responder rates based on the PANSS total score, and the Calgary Depression Scale for Schizophrenia (CDSS).
Subjects who completed this study had the option to continue in the long-term. […] After completing a Single-Blind placebo lead-in period of at least three days, bifeprunox-treated subjects were titrated from 0.25 mg up to 30 mg/day or 40 mg/day according to a standardized titration scheme over an eight-day period. When the assigned dose was reached, subjects were maintained at that dose for the remainder of the six week treatment period. […] Rating scale assessments for efficacy and abnormal movement disorders were done weekly except for Week 5. Safety assessments were performed at Screening, during treatment and at the end of the study. Subject satisfaction with study medication was assessed at Week 6. Samples of blood were obtained at Weeks 2, 4, and 6 for determination of bifeprunox in plasma. Blood samples were also obtained at Screening/Baseline, Week 3, and Week 6 for clinical laboratory assessments.
Diagnosis and Main Criteria for Inclusion: Male or female subjects 18-75 years of age with schizophrenia (per DSM-IV-TR criteria). Subjects had to have a total score on the PANSS between 70 and 120; at least two of four PANSS items (conceptual disorganization, hallucinatory behavior, suspiciousness, unusual thought content) had to have a score ≧4; and the score on the CGI-S had to be at least 4.

Cc1cc2c(s1)Nc1ccccc1N=C2N1CCN(C)CC1 [Olanzapine, olanzapine, reference compound]
CGI Responder No, % ([1]; 15 mg, Week 6/Endpoint): 54%
CGI Responder Yes, % ([1]; 15 mg, Week 6/Endpoint): 46%
CGI-I responder rate (subjects much or very much improved) at Endpoint ([1]; olanzapine 15 mg): 46%

Cc1nc2n(c(=O)c1CCN1CCC(c3noc4cc(F)ccc34)CC1)CCCC2 [Risperidone, risperidone, reference compound]
Change from Baseline in CGI Severity of Illness Score, Mean (SD) ([2]; Week 1): −0.39 (0.63)
Change from Baseline in CGI Severity of Illness Score, Median ([2]; Week 1): 0.0
Change from Baseline in CGI Severity of Illness Score, Mean (SD) ([2]; Week 2): −0.73 (0.95)
Change from Baseline in CGI Severity of Illness Score, Median ([2]; Week 2): −1.0
Change from Baseline in CGI Severity of Illness Score, Mean (SD) ([2]; Week 3): −0.94 (1.00)
Change from Baseline in CGI Severity of Illness Score, Median ([2]; Week 3): −1.0
Change from Baseline in CGI Severity of Illness Score, Mean (SD) ([2]; Week 4): −1.02 (1.09)
Change from Baseline in CGI Severity of Illness Score, Median ([2]; Week 4): −1.0
Change from Baseline in CGI Severity of Illness Score, Mean (SD) ([2]; Week 6/Endpoint): −1.06 (1.20)
Change from Baseline in CGI Severity of Illness Score, Median ([2]; Week 6/Endpoint): −1.0
mean change (SD) from Baseline to Endpoint in CGI severity of illness score ([2]; risperidone 6 mg, ITT): −1.06 (1.20)
Change from Baseline in General Psychopathology Subscale Score, Mean (SD) ([3]; Week 1): −3.9 (5.6)
Change from Baseline in General Psychopathology Subscale Score, Median ([3]; Week 1): −4
Change from Baseline in General Psychopathology Subscale Score, Mean (SD) ([3]; Week 2): −6.7 (7.3)
Change from Baseline in General Psychopathology Subscale Score, Median ([3]; Week 2): −6
Change from Baseline in General Psychopathology Subscale Score, Mean (SD) ([3]; Week 3): −7.6 (7.7)
Change from Baseline in General Psychopathology Subscale Score, Median ([3]; Week 3): −8
Change from Baseline in General Psychopathology Subscale Score, Mean (SD) ([3]; Week 4): −8.4 (8.5)
Change from Baseline in General Psychopathology Subscale Score, Median ([3]; Week 4): −9
Change from Baseline in General Psychopathology Subscale Score, Mean (SD) ([3]; Week 6/Endpoint): −8.6 (9.8)
Change from Baseline in General Psychopathology Subscale Score, Median ([3]; Week 6/Endpoint): −9
mean change (SD) from Baseline to Endpoint in PANSS general psychopathology subscale score ([3]; risperidone 6 mg, ITT): −8.6 (9.8)
PANSS Responder at Endpoint (LOCF), 20% Definition [4]: 46 (40) n (%)
PANSS Responder at Endpoint (LOCF), 25% Definition [4]: 34 (29) n (%)
PANSS Responder at Endpoint (LOCF), 30% Definition [4]: 26 (22) n (%)
PANSS Responder at Endpoint (LOCF), 35% Definition [4]: 15 (13) n (%)
Change from Baseline in PANSS Total Score, Mean (SD) ([5]; Week 1): −8.7 (10.2)
Change from Baseline in PANSS Total Score, Median ([5]; Week 1): −9
Change from Baseline in PANSS Total Score, Mean (SD) ([5]; Week 2): −14.8 (14.2)
Change from Baseline in PANSS Total Score, Median ([5]; Week 2): −15
Change from Baseline in PANSS Total Score, Median ([5]; Week 3): −18
Change from Baseline in PANSS Total Score, Mean (SD) ([5]; Week 4): −19.2 (17.0)
Change from Baseline in PANSS Total Score, Median ([5]; Week 4): −20
Change from Baseline in PANSS Total Score, Mean (SD) ([5]; Week 6/Endpoint): −19.7 (19.3)
Change from Baseline in PANSS Total Score, Median ([5]; Week 6/Endpoint): −21
